Target: T1, human PDE4B1 (Homo sapiens, UniProt Q07343)
T1 construct: host or cells: Sf9 cells
Assay: cAMP HTRF assay to determine the activity of hPDE4B1
Format: biochemical
Conditions: for IC50: dose response measurements with eight concentrations, reported as ranges, read-out: IC50
Procedure: cAMP HTRF® Assay to Determine the Activity of hPDE4B1
The inhibiting effect of the compounds on the enzyme activity of human PDE4B1 was measured by the quantification of 5′-adenosine monophosphate (5′-AMP), which is formed from 3′,5′-cyclic adenosine monophosphate (cAMP). Human recombinant enzyme, expressed in Sf9 cells, and the HTRF (homogeneous time-resolved fluorescence) detection method were used in the assay.
The test compound or water (control) was mixed with the human recombinant PDE4B1 enzyme (4.8 U) in a buffer consisting of 44.4 mM tris-HCl, 5.28 mM MgCl2, 2.64 mM DTT and 0.044% Tween 20 (pH 7.8). After adding the cAMP enzyme substrate (final concentration 40 nM), the mixture was incubated for 30 minutes at room temperature. Then a fluorescence acceptor (Dye2 marked with cAMP), a fluorescence donor (anti-cAMP antibody marked with a europium cryptate) and the non-specific phosphodiesterase inhibitor IBMX (3-isobutyl-1-methylxanthine; final concentration 1 mM) were added. After 60 minutes the fluorescence transfer, which correlates with the amount of remaining cAMP, was measured with a microplate reader (Rubystar, BMG) at λex=337 nm, λem=620 nm and λem=665 nm. The enzyme activity was calculated from the quotient formed from the measured signal at 665 nm and that at 620 nm. The result was expressed as the percentage inhibition of enzyme activity of the control (without PDE4 inhibitor). The enzyme was omitted for measurement of the basal control.
IC50 values (IC50=concentration causing a half-maximal inhibition of control specific activity) were derived from dose response measurements with eight different concentrations (n=2; N=1-2).
Literature: N. Saldou et al., Comparison of recombinant human PDE4 isoforms: interaction with substrate and inhibitors, Cell. Signal. Vol. 10, No. 6, 427-440, 1998

[1] = Percentage inhibition of PDE4B at 1 μM test concentration

T1 sequence (Q07343 whole entry): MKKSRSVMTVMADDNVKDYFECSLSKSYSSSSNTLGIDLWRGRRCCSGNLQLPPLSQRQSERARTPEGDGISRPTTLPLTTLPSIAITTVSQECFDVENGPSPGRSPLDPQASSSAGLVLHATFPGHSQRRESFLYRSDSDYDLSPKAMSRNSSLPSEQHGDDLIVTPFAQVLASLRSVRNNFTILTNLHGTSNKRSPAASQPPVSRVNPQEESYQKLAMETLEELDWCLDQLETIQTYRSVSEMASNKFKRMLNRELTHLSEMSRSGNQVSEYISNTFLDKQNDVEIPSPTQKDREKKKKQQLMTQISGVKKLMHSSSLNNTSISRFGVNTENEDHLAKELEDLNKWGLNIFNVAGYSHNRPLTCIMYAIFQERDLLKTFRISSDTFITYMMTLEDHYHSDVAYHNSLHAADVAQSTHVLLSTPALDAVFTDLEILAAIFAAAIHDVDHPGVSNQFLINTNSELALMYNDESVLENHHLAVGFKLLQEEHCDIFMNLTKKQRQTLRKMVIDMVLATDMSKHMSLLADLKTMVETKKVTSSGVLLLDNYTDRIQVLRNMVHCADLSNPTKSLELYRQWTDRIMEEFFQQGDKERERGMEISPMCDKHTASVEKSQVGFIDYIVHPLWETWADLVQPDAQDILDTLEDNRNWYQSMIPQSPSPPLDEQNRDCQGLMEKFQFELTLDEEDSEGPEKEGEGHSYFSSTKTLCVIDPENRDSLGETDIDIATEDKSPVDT

SMILES	inhibition at 1 µM [1]	IC50	Inhibition at 1 μM test concentration [%] (Percentage inhibition of PDE4B at 1 μM test concentration, 1 µM)
O=C(O)c1ccc2c(c1)ncn2-c1nc(-c2ccc(Cl)s2)nc2c1CCC2 (single isomer, unassigned) [Compound No. 1-63, 1-(2-(5-Chlorothiophen-2-yl)-6,7-dihydro-5H-cyclopenta[d]pyrimidin-4-yl)-1H-benzo[d]imidazole-5-carboxylic acid]	35%		
O=C(O)c1ccc2ncn(-c3nc(-c4ccc(Cl)s4)nc4c3CCC4)c2c1 (single isomer, unassigned) [Compound No. 1-74, 1-(2-(5-Chlorothiophen-2-yl)-6,7-dihydro-5H-cyclopenta[d]pyrimidin-4-yl)-1H-benzo[d]imidazole-6-carboxylic acid]	31%		
CN(C)C(=O)COc1ccc2ncn(-c3nc(-c4ccc(Cl)s4)nc4c3C[S+]([O-])C4)c2c1 (single isomer, unassigned) [Compound No. 2-74, 2-((1-(2-(5-Chlorothiophen-2-yl)-6-oxido-5,7-dihydrothieno[3,4-d]pyrimidin-4-yl)-1H-benzo[d]imidazol-6-yl)oxy)-N,N-dimethylacetamide]	80%	100 to 1000 nM	
CN(C)C(=O)COc1ccc2c(c1)ncn2-c1nc(-c2ccc(Cl)s2)nc2c1C[S+]([O-])C2 (single isomer, unassigned) [Compound No. 2-75, 2-((1-(2-(5-Chlorothiophen-2-yl)-6-oxido-5,7-dihydrothieno[3,4-d]pyrimidin-4-yl)-1H-benzo[d]imidazol-5-yl)oxy)-N,N-dimethylacetamide]	39%		
COc1ccc(-c2nc3c(c(N4CCc5ccc(OCC(=O)N(C)C)cc54)n2)C[S+]([O-])C3)cc1 (centres unmarked) [2-18, 2-((1-(2-(4-Methoxyphenyl)-6-oxido-5,7-dihydrothieno[3,4-d]pyrimidin-4-yl)indolin-6-yl)oxy)-N,N-dimethylacetamide]	105%	< 100 nM	
COc1ccc(-c2nc3c(c(N4CCc5ccc(OCC(=O)N(C)C)cc54)n2)C[S+]([O-])C3)cc1 (centres unmarked) [2-20, 2-[[1-[2-(4-Methoxyphenyl)-6-oxo-5,7-dihydro-thieno[3,4-d]pyrimidin-4-yl]-2,3-dihydro-1H-indol-6-yl]oxy]-N,N-dimethyl-acetamide]			98%
CN(C)C(=O)COc1ccc2c(c1)N(c1nc(-c3cccc(F)c3)nc3c1C[S+]([O-])C3)CC2 (centres unmarked) [2-24, 2-[[1-[2-(3-Fluorophenyl)-6-oxo-5,7-dihydro-thieno[3,4-d]pyrimidin-4-yl]-2,3-dihydro-1H-indol-6-yl]oxy]-N,N-dimethyl-acetamide]	115%	< 100 nM	
COc1ccc(-c2nc3c(c(N4CCc5ccc(OCC(=O)N(C)C)cc54)n2)CSC3)cc1Cl [2-31]		< 100 nM	
CN(C)C(=O)COc1ccc2c(c1)N(c1nc(-c3ccc(F)s3)nc3c1C[S+]([O-])C3)CC2 (centres unmarked) [2-48, 2-((1-(2-(5-Fluorothiophen-2-yl)-6-oxido-5,7-dihydrothieno[3,4-d]pyrimidin-4-yl)indolin-6-yl)oxy)-N,N-dimethylacetamide]	94%	< 100 nM	
O=C(COc1ccc2c(c1)N(c1nc(-c3ccc(Cl)s3)nc3c1CS(=O)(=O)C3)CC2)NCCO [2-62, 2-((1-(2-(5-Chlorothiophen-2-yl)-6,6-dioxido-5,7-dihydrothieno[3,4-d]pyrimidin-4-yl)indolin-6-yl)oxy)-N-(2-hydroxyethyl)acetamide]	91%	< 100 nM	
CN(C)C(=O)COc1ccc2oc(=O)n(-c3nc(-c4ccc(Cl)s4)nc4c3C[S+]([O-])C4)c2c1 (centres unmarked) [2-76, 2-((3-(2-(5-Chlorothiophen-2-yl)-6-oxido-5,7-dihydrothieno[3,4-d]pyrimidin-4-yl)-2-oxo-2,3-dihydrobenzo[d]oxazol-5-yl)oxy)-N,N-dimethylacetamide]	62%	100 to 1000 nM	
CN(C)C(=O)COc1ccc2c(c1)N(c1nc(-c3ccc(C(N)=O)s3)nc3c1CCC3)CC2 [2-85, 5-(4-(6-(2-(Dimethylamino)-2-oxoethoxy)indolin-1-yl)-6,7-dihydro-5H-cyclopenta[d]pyrimidin-2-yl)thiophene-2-carboxamide]	99%		
Cc1ccc(-c2nc3c(c(N4CCc5ccc(OCC(=O)N(C)C)cc54)n2)C[S+]([O-])C3)cc1 (centres unmarked) [2-87, N,N-Dimethyl-2-[[1-(6-oxo-2-p-tolyl-5,7-dihydro-thieno[3,4-d]pyrimidin-4-yl)-2,3-dihydro-1H-indol-6-yl]oxy]-acetamide]	112%	< 100 nM	
COc1ccccc1-c1nc2c(c(N3CCc4ccc(OCC(=O)N(C)C)cc43)n1)C[S+]([O-])C2 (centres unmarked) [2-88, 2-[[1-[2-(2-Methoxyphenyl)-6-oxo-5,7-dihydro-thieno[3,4-d]pyrimidin-4-yl]-2,3-dihydro-1H-indol-6-yl]oxy]-N,N-dimethyl-acetamide]	73%	100 to 1000 nM	
CN(C)C(=O)COc1ccc2c(c1)N(c1nc(-c3cccc(Cl)c3)nc3c1C[S+]([O-])C3)CC2 (centres unmarked) [2-89, 2-[[1-[2-(3-Chlorophenyl)-6-oxo-5,7-dihydro-thieno[3,4-d]pyrimidin-4-yl]-2,3-dihydro-1H-indol-6-yl]oxy]-N,N-dimethyl-acetamide]	119%	< 100 nM	
CN(C)C(=O)COc1ccc2c(c1)N(c1nc(-c3ccc(Cl)cc3)nc3c1C[S+]([O-])C3)CC2 (centres unmarked) [2-90, 2-[[1-[2-(4-Chlorophenyl)-6-oxo-5,7-dihydro-thieno[3,4-d]pyrimidin-4-yl]-2,3-dihydro-1H-indol-6-yl]oxy]-N,N-dimethyl-acetamide]	117%	< 100 nM	
COc1cccc(-c2nc3c(c(N4CCc5ccc(OCC(=O)N(C)C)cc54)n2)C[S+]([O-])C3)c1 (centres unmarked) [2-91, 2-[[1-[2-(3-Methoxyphenyl)-6-oxo-5,7-dihydro-thieno[3,4-d]pyrimidin-4-yl]-2,3-dihydro-1H-indol-6-yl]oxy]-N,N-dimethyl-acetamide]	117%	< 100 nM	
CN(C)C(=O)COc1ccc2c(c1)N(c1nc(-c3ccc(C#N)cc3)nc3c1C[S+]([O-])C3)CC2 (centres unmarked) [2-92, 2-[[1-[2-(4-Cyano-phenyl)-6-oxo-5,7-dihydro-thieno[3,4-d]pyrimidin-4-yl]-2,3-dihydro-1H-indol-6-yl]oxy]-N,N-dimethyl-acetamide]	97%	< 100 nM	
CN(C)C(=O)COc1ccc2c(c1)N(c1nc(-c3ccccc3)nc3c1C[S+]([O-])C3)CC2 (centres unmarked) [2-93, N,N-Dimethyl-2-[[1-(6-oxo-2-phenyl-5,7-dihydro-thieno[3,4-d]pyrimidin-4-yl)-2,3-dihydro-1H-indol-6-yl]oxy]-acetamide]	121%	< 100 nM	
Cc1ccccc1-c1nc2c(c(N3CCc4ccc(OCC(=O)N(C)C)cc43)n1)C[S+]([O-])C2 (centres unmarked) [2-94, N,N-Dimethyl-2-[[1-(2-o-tolyl-6-oxo-5,7-dihydro-thieno[3,4-d]pyrimidin-4-yl)-2,3-dihydro-1H-indol-6-yl]oxy]-acetamide]	91%	100 to 1000 nM	
Cc1cccc(-c2nc3c(c(N4CCc5ccc(OCC(=O)N(C)C)cc54)n2)C[S+]([O-])C3)c1 (centres unmarked) [2-95, N,N-Dimethyl-2-[[1-(2-m-tolyl-6-oxo-5,7-dihydro-thieno[3,4-d]pyrimidin-4-yl)-2,3-dihydro-1H-indol-6-yl]oxy]-acetamide]	113%	< 100 nM	
CN(C)C(=O)COc1ccc2c(c1)N(c1nc(-c3ccccc3Cl)nc3c1C[S+]([O-])C3)CC2 (centres unmarked) [2-96, 2-[[1-[2-(2-Chlorophenyl)-6-oxo-5,7-dihydro-thieno[3,4-d]pyrimidin-4-yl]-2,3-dihydro-1H-indol-6-yl]oxy]-N,N-dimethyl-acetamide]	107%	< 100 nM	
CN(C)C(=O)COc1ccc2c(c1)N(c1nc(-c3ccccc3C(F)(F)F)nc3c1C[S+]([O-])C3)CC2 (centres unmarked) [2-97, N,N-Dimethyl-2-[[1-[6-oxo-2-[2-(trifluoromethyl)-phenyl]-5,7-dihydro-thieno[3,4-d]pyrimidin-4-yl]-2,3-dihydro-1H-indol-6-yl]oxy]-acetamide]	93%	100 to 1000 nM	
CN(C)C(=O)COc1ccc2c(c1)N(c1nc(-c3cccc(C#N)c3)nc3c1C[S+]([O-])C3)CC2 (centres unmarked) [2-98, 2-[[1-[2-(3-Cyano-phenyl)-6-oxo-5,7-dihydro-thieno[3,4-d]pyrimidin-4-yl]-2,3-dihydro-1H-indol-6-yl]oxy]-N,N-dimethyl-acetamide]	98%	< 100 nM	
CN(C)C(=O)COc1ccc2c(c1)N(c1nc(-c3ccc(F)cc3)nc3c1C[S+]([O-])C3)CC2 (centres unmarked) [2-99, 2-[[1-[2-(4-Fluorophenyl)-6-oxo-5,7-dihydro-thieno[3,4-d]pyrimidin-4-yl]-2,3-dihydro-1H-indol-6-yl]oxy]-N,N-dimethyl-acetamide]	104%	< 100 nM	

Reference: US9527832B2, “Substituted condensed pyrimidine compounds” (GRÜNENTHAL GMBH, priority 2013, dated 2016)
